Experimental findings from patent publication US9771378B2 (Denali Therapeutics, Inc., priority 2014, dated 2017) are described below.

The subject of this experiment is Aβ42 (human neuroglioma H4 cells expressing human wild type APP751). In words: In vitro cell screening assay with sandwich ELISA quantification of Aβ42 peptide. Format: cell-based. To be noted: H4 cells stably expressing human wild type APP751; Pro293 chemically defined medium; compounds 0.003-10 μM; incubated overnight (16-18 h); supernatant Aβ42 by sandwich ELISA; normalized to DMSO and DAPT; read-out: Aβ42 H4 Prot Fre IC50. The procedure, abridged: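 H4 neuroglioma cells stably expressing human wild-type APP751 were treated in Pro293 medium with compounds (0.003-10 μM, 0.33% DMSO) for 16-18 h at 37° C. Secreted Aβ42 measured by sandwich ELISA (C-terminal capture, 4G8-HRP detection, TMB, 450 nm). IC50 by variable-slope sigmoidal regression on percent of DMSO control.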
On the technique in general: An ELISA detects its analyte on a solid surface through an enzyme-linked reagent.
One may read the IC50 as the midpoint of a concentration-inhibition curve. For `COc1ccc(C2COc3cnc(Nc4cnc(-n5cnc(C)c5)c(OC)c4)nc3N2C)c(Cl)c1` (single isomer, unassigned; (+)) [Example 209A], the half-inhibitory concentration (IC50) turned out to be 21 nM.
Then `Cc1cn(-c2ccc(Nc3ncc4c(n3)N(C)C(c3cc(Cl)ccc3C(F)(F)F)CO4)cc2F)cn1` (single isomer, unassigned; (+)) [Example 100A], with 101 nM; and `COc1cc(Nc2ncc3c(n2)N2CCC[C@]2(C)CO3)ccc1-n1cnc(C)c1` [Example 294, (R)-N-(3-methoxy-4-(4-methyl-1H-imidazol-1-yl)phenyl)-6a-methyl-6a, 7,8,9-tetrahydro-6H-pyrimido [5,4-b] pyrrolo [1,2-d] [1, 4] oxazin-2-amine], with 80 nM.
Then `COc1cc(Nc2ncc3c(n2)N(C)C(c2cc(F)ccc2C(F)(F)F)CO3)ccc1-n1cnc(C)c1` (single isomer, unassigned; (+)) [Example 105B], with 51 nM.
Then `COc1cc(Nc2ncc3c(n2)N(C)C(c2cc(F)cc(F)c2)CO3)cnc1-n1cnc(C#N)c1` (single isomer, unassigned; (-)) [Example 211B, (−)-1-(5-((7-(3,5-difluorophenyl)-8-methyl-7,8-dihydro-6H-pyrimido [5,4-b] [1, 4]oxazin-2-yl)amino)-3-methoxypyridin-2-yl)-1H-imidazole-4-carbonitrile], with greater than 3000 nM; and `COc1ccc(Cl)c(C2COc3cnc(Nc4cnc(-n5cnc(C)c5)c(OC)c4)nc3N2C)c1` (single isomer, unassigned; (+)) [Example 208A], with 20 nM.
On to `COc1ccc(C2COc3cnc(Nc4cnc(-n5cnc(C)c5)c(OC)c4)nc3N2C)c(C)c1` (single isomer, unassigned; (-)) [Example 215B], for which the half-inhibitory concentration (IC50) worked out at 96 nM.
Then `COc1cc(Nc2ncc3c(n2)N(C)[C@@H](CC2CC2)CO3)cnc1-n1cnc(C)c1` [Example 218], with 39 nM; and `COc1cc(Nc2ncc3c(n2)N(C)C(c2ccc(Cl)cc2C(F)(F)F)CO3)ccc1-c1ccnc(C)c1` (single isomer, unassigned; (-)) [Example 107A], with 422 nM.
In the case of `Cc1cn(-c2ccc(Nc3ncc4c(n3)N(C)C(c3cc(F)cc(F)c3)CO4)cc2F)cn1` (single isomer, unassigned; (-)) [Example 33B] it was 389 nM.
Then `COc1cc(Nc2ncc3c(n2)N2CC(F)(F)C[C@@H]2CO3)ccc1-n1cnc(C)c1` [Example 303, (R)-8,8-difluoro-N-(3-methoxy-4-(4-methyl-1H-imidazol-1-yl)phenyl)-6a, 7,8,9-tetrahydro-6H-pyrimido [5,4-b] pyrrolo [1,2-d] [1, 4] oxazin-2-amine], with 131 nM; and `COc1cc(Nc2ncc3c(n2)N(C)C(c2ccc(F)cc2)CO3)ccc1-c1ccnc(C)c1` (single isomer, unassigned; (+)) [Example 61B], with 58 nM.
For the compound `COc1ccc(C2COc3cnc(Nc4cnc(-n5cnc(C)c5)c(OC)c4)nc3N2C)c(C)c1` (single isomer, unassigned; (+)) [Example 215A], the IC50 turned out to be 16 nM.
In the case of `Cc1cn(-c2ccc(Nc3ncc4c(n3)N(C)C(c3ccccc3)CO4)cc2)cn1` (single isomer, unassigned; (-)) [Example 26B] it was 3140 nM; in that of `COc1cc(Nc2ncc3c(n2)N(C)C(c2ccc(F)cc2C(F)(F)F)CO3)ccc1-n1cnc(C)c1` (single isomer, unassigned; (-)) [Example 94A], 78 nM.
In the case of `COc1cc(Nc2ncc3c(n2)N(C)C(C2CCC(F)(F)CC2)CO3)cnc1-n1cnc(C)c1` (single isomer, unassigned; (-)) [Example 221B] it was 325 nM.
In the case of `Cc1cn(-c2ccc(Nc3ncc4c(n3)N(C)C(c3cc(F)c(F)c(F)c3)CO4)cc2)cn1` (racemic) [Example 44] it was 75 nM; in that of `COc1cc(Nc2ncc3c(n2)N(C)C(C2CC(F)(F)C2)CO3)ccc1-n1cnc(C)c1` (single isomer, unassigned; (+)) [Example 212B], 61 nM.
Consider `COc1cc(Nc2ncc3c(n2)N(C)C(c2ccc(F)cc2)CO3)ccc1-n1cnc(C)c1` (racemic) [Example 49], for which the IC50 came out at 36 nM.
In the case of `COc1cc(Nc2ncc3c(n2)N(C)[C@H](c2ccccc2)CO3)ccc1-c1ccnc(C)c1` [Example 22B, (R)—N-(3-methoxy-4-(2-methylpyridin-4-yl)phenyl)-8-methyl-7-phenyl-7,8-dihydro-6H-pyrimido[5,4-b][1,4]oxazin-2-amine] it was 168 nM.
Then `COc1cc(Nc2ncc3c(n2)N(C)C(c2cc(F)c(F)c(F)c2)CO3)cnc1-n1cnc(C)c1` (single isomer, unassigned; (-)) [Example 182B], with 176 nM.
In the case of `Cc1cn(-c2ccc(Nc3ncc4c(n3)N(C)C(c3cc(F)ccc3C(F)(F)F)CO4)cc2F)cn1` (single isomer, unassigned; (-)) [Example 104A] it was 526 nM; in that of `COc1cc(Nc2ncc3c(n2)N(C)C(Cc2ccccc2)CO3)ccc1-n1cnc(C)c1` (single isomer, unassigned; (+)) [Example 47A], 23 nM; in that of `COc1cc(Cl)c(C2COc3cnc(Nc4ccc(-n5cnc(C)c5)c(OC)c4)nc3N2C)cc1Cl` (racemic) [Example 89], 23 nM.
Regarding `Cc1cn(-c2ccc(Nc3ncc4c(n3)N(C)C(c3cc(C(F)(F)F)ccc3Cl)CO4)cc2F)cn1` (single isomer, unassigned; (-)) [Example 173B], the IC50 worked out at 831 nM.
Then `Cc1cn(-c2ccc(Nc3ncc4c(n3)N3CCC[C@@]3(C)CO4)cc2F)cn1` [Example 292, (S)-N-(3-fluoro-4-(4-methyl-1H-imidazol-1-yl)phenyl)-6a-methyl-6a, 7,8,9-tetrahydro-6H-pyrimido [5,4-b] pyrrolo [1,2-d] [1, 4] oxazin-2-amine], with 438 nM; and `Cc1cn(-c2ccc(Nc3ncc4c(n3)N(C)C(c3ccc(Cl)cc3C(F)(F)F)CO4)cc2F)cn1` (single isomer, unassigned; (-)) [Example 106B], with 1020 nM; and `Cc1cn(-c2ccc(Nc3ncc4c(n3)N(C)C(c3ccc(F)cc3Cl)CO4)cc2F)cn1` (single isomer, unassigned; (-)) [Example 101B], with 685 nM.
Consider `COc1cc(Nc2ncc3c(n2)N(C)C(c2ccc(F)cc2F)CO3)ccc1-n1cnc(C)c1` (single isomer, unassigned; (+)) [Example 48B], for which the IC50 was determined as 20 nM.
Then `Cc1cn(-c2ncc(Nc3ncc4c(n3)N(C)C(C(F)(F)F)CO4)cc2Cl)cn1` (single isomer, unassigned; (+)) [Example 229B], with 2850 nM; and `COc1cc(Nc2ncc3c(n2)N(C)C(c2cc(F)c(F)c(F)c2)CO3)ccc1-n1cnc(C)c1` (racemic) [Example 40], with 20 nM.
In the case of `Cc1cc(-c2ccc(Nc3ncc4c(n3)N(C)C(c3cc(F)cc(F)c3)CO4)cc2F)ccn1` (single isomer, unassigned; (+)) [Example 41A], the IC50 came out at 77 nM.
As to `COc1ccc(Cl)c(C2COc3cnc(Nc4ccc(-n5cnc(C)c5)c(OC)c4)nc3N2C)c1` (single isomer, unassigned; (+)) [Example 167A], the IC50 was 22 nM.
In the case of `COc1cc(Nc2ncc3c(n2)N(C)C(c2ccccc2C(F)(F)F)CO3)ccc1-c1ccnc(C)c1` (single isomer, unassigned; (+)) [Example 70B] it was 151 nM.
As for `COc1cc(Nc2ncc3c(n2)N(C)C(c2ccc(Cl)cc2Cl)CO3)ccc1-n1cnc(C)c1` (single isomer, unassigned; (+)) [Example 95B], the IC50 turned out to be 15 nM.
Then `Cc1cn(-c2ccc(Nc3ncc4c(n3)N(C)C(c3ccccc3)CO4)cc2F)cn1` (single isomer, unassigned; (-)) [Example 25B], with 334 nM; and `COc1cc(Nc2ncc3c(n2)N(C)C(C)CO3)cnc1-n1cnc(C)c1` (single isomer, unassigned; (+)) [Example 185A], with 241 nM; and `Cc1cn(-c2ccc(Nc3ncc4c(n3)N(C)C(c3ccccc3OC(F)(F)F)CO4)cc2F)cn1` (single isomer, unassigned; (-)) [Example 64B], with 741 nM.
In the case of `COc1cc(Nc2ncc3c(n2)N(C)C(C2(C(F)(F)F)CC2)CO3)ccc1-n1cnc(C)c1` (single isomer, unassigned; (-)) [Example 245A] it was 216 nM.
Then `COc1cc(Nc2ncc3c(n2)N2CCOC[C@@H]2CO3)ccc1-n1cnc(C)c1` [Example 296], with 759 nM.
For the compound `Cc1cc(-c2ccc(Nc3ncc4c(n3)N(C)C(c3cc(F)cc(F)c3)CO4)cc2)ccn1` (single isomer, unassigned; (-)) [Example 28A], the IC50 was 1960 nM.
Then `COc1cc(Nc2ncc3c(n2)N(C)C(c2cc(F)c(F)cc2F)CO3)ccc1-n1cnc(C)c1` (single isomer, unassigned; (+)) [Example 97B], with 13 nM.
Turning to `Cc1cn(-c2ccc(Nc3ncc4c(n3)N(C)C(C)CO4)cc2C(F)F)cn1` (single isomer, unassigned; (-)) [Example 214B], the 50% inhibitory concentration (IC50) was found to be 2260 nM.
Then `Cc1cn(-c2ccc(Nc3ncc4c(n3)N(C)C(C)CO4)cc2C#N)cn1` (single isomer, unassigned; (+)) [Example 205A, (+)-5-((7,8-dimethyl-7,8-dihydro-6H-pyrimido [5,4-b] [1, 4]oxazin-2-yl)amino)-2-(4-methyl-1H-imidazol-1-yl) benzonitrile], with 231 nM.
Then `COc1cc(Nc2ncc3c(n2)N(C)C(c2cc(F)c(F)c(F)c2)CO3)ccc1-n1cnc(C)c1` (single isomer, unassigned; (-)) [Example 40A], with 279 nM; and `COc1cc(Nc2ncc3c(n2)N(C)C(c2cc(F)cc(F)c2)CO3)ccc1-c1ccnc(C)c1` (racemic) [Example 42], with 47 nM.
